Experimental data from patent US20170197979A1, “BENZOTHIADIAZOLAMINES” (BAYER PHARMA AKTIENGESELLSCHAFT, priority 2014, published 2017).

The molecules below were run against T1, human full-length MKNK1 (Homo sapiens, UniProt Q9BUB5, T385D) (assay: MKNK1 kinase high ATP assay (TR-FRET)). Settings: TR-FRET, high ATP (2 mM final), 15 min preincubation with enzyme, GST-MKNK1 (T344D); read-out: MKNK1 IC50.
T1 construct: GST (N); purchased Carna Biosciences 02-145; host or cells: insect cells (baculovirus expression system)
T1 sequence (Q9BUB5 1-424 isoform Q9BUB5-2 T344D): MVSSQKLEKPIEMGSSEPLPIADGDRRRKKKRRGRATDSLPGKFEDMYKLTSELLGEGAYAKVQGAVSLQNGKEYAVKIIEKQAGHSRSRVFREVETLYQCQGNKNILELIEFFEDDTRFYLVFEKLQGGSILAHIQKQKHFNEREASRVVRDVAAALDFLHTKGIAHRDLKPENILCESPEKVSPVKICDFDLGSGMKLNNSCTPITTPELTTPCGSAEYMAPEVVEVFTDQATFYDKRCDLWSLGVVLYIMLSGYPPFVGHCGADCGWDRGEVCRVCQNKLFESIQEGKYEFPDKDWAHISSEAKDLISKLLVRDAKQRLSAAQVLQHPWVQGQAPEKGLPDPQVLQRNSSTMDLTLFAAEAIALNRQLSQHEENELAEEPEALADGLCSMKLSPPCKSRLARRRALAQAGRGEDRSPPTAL
Format: biochemical
Description: MKNK1 Kinase High ATP Assay
MKNK1-inhibitory activity at high ATP of compounds of the present invention after their preincubation with MKNK1 was quantified employing the TR-FRET-based MKNK1 high ATP assay as described in the following paragraphs.
A recombinant fusion protein of Glutathione-S-Transferase (GST, N-terminally) and human full-length MKNK1 (amino acids 1-424 and T344D of accession number BAA 19885.1), expressed in insect cells using baculovirus expression system and purified via glutathione sepharose affinity chromatography, was purchased from Carna Biosciences (product no 02-145) and used as enzyme. As substrate for the kinase reaction the biotinylated peptide biotin-Ahx-IKKRKLTRRKSLKG (C-terminus in amide form) was used, which can be purchased e.g. from the company Biosyntan (Berlin-Buch, Germany).
For the assay 50 nL of a 100 fold concentrated solution of the test compound in DMSO was pipetted into a black low volume 384 well microtiter plate (Greiner Bio-One, Frickenhausen, Germany), 2 μL of a solution of MKNK1 in aqueous assay buffer [50 mM HEPES pH 7.5, 5 mM MgCl2, 1.0 mM dithiothreitol, 0.005% (v/v) Nonidet-P40 (Sigma)] was added and the mixture was incubated for 15 min at 22° C. to allow pre-binding of the test compounds to the enzyme before the start of the kinase reaction. Then the kinase reaction was started by the addition of 3 μL of a solution of adenosine-tri-phosphate (ATP, 3.3 mM=>final conc. in the 5 μL assay volume is 2 mM) and substrate (0.1 μM=>final conc. in the 5 μL assay volume is 0.06 μM) in assay buffer and the resulting mixture was incubated for a reaction time of 30 min at 22° C. The concentration of MKNK1 was adjusted depending of the activity of the enzyme lot and was chosen appropriate to have the assay in the linear range, typical concentrations were in the range of 0.003 μg/mL. The reaction was stopped by the addition of 5 μL of a solution of TR-FRET detection reagents (5 nM streptavidine-XL665 [Cisbio Bioassays, Codolet, France] and 1 nM anti-ribosomal protein S6 (pSer236)-antibody from Invitrogen [#44921G] and 1 nM LANCE EU-W1024 labeled ProteinG [Perkin-Elmer, product no. AD0071]) in an aqueous EDTA-solution (100 mM EDTA, 0.1% (w/v) bovine serum albumin in 50 mM HEPES pH 7.5).
The resulting mixture was incubated for 1 h at 22° C. to allow the formation of complex between the phosphorylated biotinylated peptide and the detection reagents. Subsequently the amount of phosphorylated substrate was evaluated by measurement of the resonance energy transfer from the Eu-chelate to the streptavidine-XL. Therefore, the fluorescence emissions at 620 nm and 665 nm after excitation at 350 nm were measured in a TR-FRET reader, e.g. a Rubystar (BMG Labtechnologies, Offenburg, Germany) or a Viewlux (Perkin-Elmer). The ratio of the emissions at 665 nm and at […] was taken as the measure for the amount of phosphorylated substrate. The data were normalised (enzyme reaction without inhibitor=0% inhibition, all other assay components but no enzyme=100% inhibition).
`COc1cc2nnsc2cc1Nc1ncnc2sc3c(c12)CC[C@H](C(=O)N(C)CC(=O)N(C)C)C3` [Example 42, (7S)—N-[2-(Dimethylamino)-2-oxoethyl]-4-[(5-methoxy-1,2,3-benzothiadiazol-6-yl)amino]-N-methyl-5,6,7,8-tetrahydro[1]benzothieno[2,3-d]pyrimidine-7-carboxamide] gave an IC50 of 0.8 nM. With `C[C@@H]1COC[C@@H](C)N1C(=O)[C@H]1CCc2c(sc3ncnc(Nc4ccc5nnsc5c4)c23)C1` [Example 9, [(7S)-4-(1,2,3-Benzothiadiazol-6-ylamino)-5,6,7,8-tetrahydro[1]benzothieno[2,3-d]pyrimidin-7-yl][(3R,5R)-3,5-dimethylmorpholin-4-yl]methanone] the IC50 was 5.4 nM. In the case of `COc1cc2nnsc2cc1Nc1ncnc2sc3c(c12)CC[C@H](C(=O)N1CC(C)(O)C1)C3` [Example 45, (3-Hydroxy-3-methylazetidin-1-yl){(7S)-4-[(5-methoxy-1,2,3-benzothiadiazol-6-yl)amino]-5,6,7,8-tetrahydro[1]benzothieno[2,3-d]pyrimidin-7-yl}methanone], the IC50 is reported as 1.5 nM. Molecule `COc1cc2nnsc2cc1Nc1ncnc2sc3c(c12)CC[C@H](C(=O)N1CCN(CCN(C)C)CC1)C3` [Example 49, {4-[2-(Dimethylamino)ethyl]piperazin-1-yl}{(7S)-4-[(5-methoxy-1,2,3-benzothiadiazol-6-yl)amino]-5,6,7,8-tetrahydro[1]benzothieno[2,3-d]pyrimidin-7-yl}methanone] has an IC50 of 1.7 nM. For `O=C([C@H]1CCc2c(sc3ncnc(Nc4ccc5nnsc5c4)c23)C1)N1CCC1` [Example 24, Azetidin-1-yl[(7S)-4-(1,2,3-benzothiadiazol-6-ylamino)-5,6,7,8-tetrahydro[1]benzothieno[2,3-d]pyrimidin-7-yl]methanone], the IC50 was 33 nM. `COc1cc2nnsc2cc1Nc1ncnc2sc3c(c12)CC[C@H](C(=O)N1CC[C@H](N(C)C)C1)C3` [Example 51, [(3S)-3-(Dimethylamino)pyrrolidin-1-yl]{(7S)-4-[(5-methoxy-1,2,3-benzothiadiazol-6-yl)amino]-5,6,7,8-tetrahydro[1]benzothieno[2,3-d]pyrimidin-7-yl}methanone] gave an IC50 of 3.3 nM. `CCN(CCN(C)C)C(=O)[C@H]1CCc2c(sc3ncnc(Nc4cc5snnc5cc4OC)c23)C1` [Example 55, (7S)—N-[2-(Dimethylamino)ethyl]-N-ethyl-4-[(5-methoxy-1,2,3-benzothiadiazol-6-yl)amino]-5,6,7,8-tetrahydro[1]benzothieno[2,3-d]pyrimidine-7-carboxamide] was tested, and the IC50 was 8.9 nM. Work on `O=C([C@H]1CCc2c(sc3ncnc(Nc4ccc5nnsc5c4)c23)C1)N1CC2(COC2)C1` [Example 20, [(7S)-4-(1,2,3-Benzothiadiazol-6-ylamino)-5,6,7,8-tetrahydro[1]benzothieno[2,3-d]pyrimidin-7-yl](2-oxa-6-azaspiro[3.3]hept-6-yl)methanone] yielded an IC50 of 16 nM. `COc1cc2nnsc2cc1Nc1ncnc2sc3c(c12)CC[C@H](C(=O)N(C)CCNC(=O)OC(C)(C)C)C3` [Example 40, tert-Butyl {2-[({(7S)-4-[(5-methoxy-1,2,3-benzothiadiazol-6-yl)amino]-5,6,7,8-tetrahydro[1]benzothieno[2,3-d]pyrimidin-7-yl}carbonyl)(methyl)amino]ethyl}carbamate] showed an IC50 of 0.8 nM. `CN(CCNC(=O)OC(C)(C)C)C(=O)[C@H]1CCc2c(sc3ncnc(Nc4ccc5nnsc5c4)c23)C1` [Example 22, tert-Butyl {2-[{[(7S)-4-(1,2,3-benzothiadiazol-6-ylamino)-5,6,7,8-tetrahydro[1]benzothieno[2,3-d]pyrimidin-7-yl]carbonyl}(methyl)amino]ethyl}carbamate] was tested, and the IC50 was 14 nM. `COc1cc2nnsc2cc1Nc1ncnc2sc3c(c12)CC[C@H](C(=O)N1CC(C#N)C1)C3` [Example 44, 1-({(7S)-4-[(5-Methoxy-1,2,3-benzothiadiazol-6-yl)amino]-5,6,7,8-tetrahydro[1]benzothieno[2,3-d]pyrimidin-7-yl}carbonyl)azetidine-3-carbonitrile] gave an IC50 of 1.7 nM. `CN(C)C(=O)CN(C)C(=O)[C@H]1CCc2c(sc3ncnc(Nc4ccc5nnsc5c4)c23)C1` [Example 29, (7S)-4-(1,2,3-Benzothiadiazol-6-ylamino)-N-[2-(dimethylamino)-2-oxoethyl]-N-methyl-5,6,7,8-tetrahydro[1]benzothieno[2,3-d]pyrimidine-7-carboxamide] showed an IC50 of 7 nM. `C[C@@H]1CN(C(=O)[C@H]2CCc3c(sc4ncnc(Nc5ccc6nnsc6c5)c34)C2)C[C@H](C)O1` [Example 3, [(7S)-4-(1,2,3-Benzothiadiazol-6-ylamino)-5,6,7,8-tetrahydro[1]benzothieno[2,3-d]pyrimidin-7-yl][(2R,6S)-2,6-dimethylmorpholin-4-yl]methanone] gave an IC50 of 13 nM. For `CN(CC(C)(C)O)C(=O)[C@H]1CCc2c(sc3ncnc(Nc4ccc5nnsc5c4)c23)C1` [Example 27, (7S)-4-(1,2,3-Benzothiadiazol-6-ylamino)-N-(2-hydroxy-2-methylpropyl)-N-methyl-5,6,7,8-tetrahydro[1]benzothieno[2,3-d]pyrimidine-7-carboxamide], the IC50 was 15 nM. Work on `COc1cc2nnsc2cc1Nc1ncnc2sc3c(c12)CC[C@H](C(=O)N1CCC1)C3` [Example 46, Azetidin-1-yl{(7S)-4-[(5-methoxy-1,2,3-benzothiadiazol-6-yl)amino]-5,6,7,8-tetrahydro[1]benzothieno[2,3-d]pyrimidin-7-yl}methanone] yielded an IC50 of 182 nM. For `COc1cc2nnsc2cc1Nc1ncnc2sc3c(c12)CC[C@H](C(=O)N1C[C@H](O)[C@@H](O)C1)C3` [Example 57, [(3S,4S)-3,4-Dihydroxypyrrolidin-1-yl]{(7S)-4-[(5-methoxy-1,2,3-benzothiadiazol-6-yl)amino]-5,6,7,8-tetrahydro[1]benzothieno[2,3-d]pyrimidin-7-yl}methanone], the IC50 was 1.6 nM. In the case of `CN(C)[C@H]1CCN(C(=O)[C@H]2CCc3c(sc4ncnc(Nc5ccc6nnsc6c5)c34)C2)C1` [Example 13, [(7S)-4-(1,2,3-Benzothiadiazol-6-ylamino)-5,6,7,8-tetrahydro[1]benzothieno[2,3-d]pyrimidin-7-yl][(3S)-3-(dimethylamino)pyrrolidin-1-yl]methanone], the IC50 is reported as 6.1 nM. `C[C@@H]1COCCN1C(=O)[C@H]1CCc2c(sc3ncnc(Nc4ccc5nnsc5c4)c23)C1` [Example 4, [(7S)-4-(1,2,3-Benzothiadiazol-6-ylamino)-5,6,7,8-tetrahydro[1]benzothieno[2,3-d]pyrimidin-7-yl][(3R)-3-methylmorpholin-4-yl]methanone] was tested, and the IC50 was 11 nM. For `C[C@H]1CN(C(=O)[C@H]2CCc3c(sc4ncnc(Nc5ccc6nnsc6c5)c34)C2)C[C@H](C)O1` [Example 10, [(7S)-4-(1,2,3-Benzothiadiazol-6-ylamino)-5,6,7,8-tetrahydro[1]benzothieno[2,3-d]pyrimidin-7-yl][(2S,6S)-2,6-dimethylmorpholin-4-yl]methanone], the IC50 was 5 nM. In the case of `CC1(O)CN(C(=O)[C@H]2CCc3c(sc4ncnc(Nc5ccc6nnsc6c5)c34)C2)C1` [Example 33, [(7S)-4-(1,2,3-Benzothiadiazol-6-ylamino)-5,6,7,8-tetrahydro[1]benzothieno[2,3-d]pyrimidin-7-yl](3-hydroxy-3-methylazetidin-1-yl)methanone], the IC50 is reported as 8 nM. `CN(C)CCN(C)C1CCN(C(=O)[C@H]2CCc3c(sc4ncnc(Nc5ccc6nnsc6c5)c34)C2)CC1` [Example 21, [(7S)-4-(1,2,3-Benzothiadiazol-6-ylamino)-5,6,7,8-tetrahydro[1]benzothieno[2,3-d]pyrimidin-7-yl](4-{[2-(dimethylamino)ethyl](methyl)amino}piperidin-1-yl)methanone] gave an IC50 of 1.3 nM. `COc1cc2nnsc2cc1Nc1ncnc2sc3c(c12)CC[C@H](C(=O)N(C)C)C3` [Example 35, (7S)-4-[(5-Methoxy-1,2,3-benzothiadiazol-6-yl)amino]-N,N-dimethyl-5,6,7,8-tetrahydro[1]benzothieno[2,3-d]pyrimidine-7-carboxamide] showed an IC50 of 1.3 nM.
